Measured values taken from publication PMC12155096 (International Journal of Molecular Sciences, 2025).

What was measured:
human CYP2C19 = human CYP2C19 (Homo sapiens, UniProt P33261)
CYP3A4 = CYP3A4 (Homo sapiens, UniProt P08684)
[1] = biological target: Photinus pyralis (firefly) luciferase (Photinus pyralis, UniProt P08659); assay: biochemical; assay type: biochemical
human CYP1A2 = biological target: T1, human CYP1A2 (Homo sapiens, UniProt P05177)
T1 sequence (P05177 1-516): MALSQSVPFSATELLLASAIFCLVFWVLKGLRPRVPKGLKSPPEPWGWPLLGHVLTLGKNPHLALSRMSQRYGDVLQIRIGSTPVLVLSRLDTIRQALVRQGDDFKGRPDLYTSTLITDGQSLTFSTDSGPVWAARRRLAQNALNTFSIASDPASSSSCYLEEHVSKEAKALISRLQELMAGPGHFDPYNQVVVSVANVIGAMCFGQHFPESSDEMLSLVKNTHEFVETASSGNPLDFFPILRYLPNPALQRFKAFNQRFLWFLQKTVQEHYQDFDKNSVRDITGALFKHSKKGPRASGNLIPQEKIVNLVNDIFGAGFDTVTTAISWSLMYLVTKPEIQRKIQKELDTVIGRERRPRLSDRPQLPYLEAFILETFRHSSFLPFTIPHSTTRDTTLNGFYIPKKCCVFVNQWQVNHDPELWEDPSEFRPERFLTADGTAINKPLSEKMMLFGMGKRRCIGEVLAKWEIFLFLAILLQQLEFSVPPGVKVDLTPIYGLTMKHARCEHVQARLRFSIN

human CYP2C9 = human CYP2C9 (Homo sapiens, UniProt P11712)
Chain of human CYP2C9 (P11712 whole entry): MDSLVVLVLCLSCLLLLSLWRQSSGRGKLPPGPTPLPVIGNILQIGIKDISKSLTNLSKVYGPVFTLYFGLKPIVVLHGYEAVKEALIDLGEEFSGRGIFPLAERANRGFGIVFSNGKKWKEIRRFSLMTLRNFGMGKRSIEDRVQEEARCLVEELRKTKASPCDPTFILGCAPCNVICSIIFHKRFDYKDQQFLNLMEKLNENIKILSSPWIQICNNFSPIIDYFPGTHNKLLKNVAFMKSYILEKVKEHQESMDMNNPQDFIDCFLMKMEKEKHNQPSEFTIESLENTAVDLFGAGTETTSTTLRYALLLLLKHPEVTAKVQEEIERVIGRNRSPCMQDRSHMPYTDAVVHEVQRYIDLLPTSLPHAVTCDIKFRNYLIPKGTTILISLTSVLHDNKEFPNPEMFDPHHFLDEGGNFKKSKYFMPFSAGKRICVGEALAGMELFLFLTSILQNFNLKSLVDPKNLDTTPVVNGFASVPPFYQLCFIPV

human CYP2D6 = human CYP2D6 (Homo sapiens, UniProt P10635)
Chain of human CYP2D6 (P10635 whole entry): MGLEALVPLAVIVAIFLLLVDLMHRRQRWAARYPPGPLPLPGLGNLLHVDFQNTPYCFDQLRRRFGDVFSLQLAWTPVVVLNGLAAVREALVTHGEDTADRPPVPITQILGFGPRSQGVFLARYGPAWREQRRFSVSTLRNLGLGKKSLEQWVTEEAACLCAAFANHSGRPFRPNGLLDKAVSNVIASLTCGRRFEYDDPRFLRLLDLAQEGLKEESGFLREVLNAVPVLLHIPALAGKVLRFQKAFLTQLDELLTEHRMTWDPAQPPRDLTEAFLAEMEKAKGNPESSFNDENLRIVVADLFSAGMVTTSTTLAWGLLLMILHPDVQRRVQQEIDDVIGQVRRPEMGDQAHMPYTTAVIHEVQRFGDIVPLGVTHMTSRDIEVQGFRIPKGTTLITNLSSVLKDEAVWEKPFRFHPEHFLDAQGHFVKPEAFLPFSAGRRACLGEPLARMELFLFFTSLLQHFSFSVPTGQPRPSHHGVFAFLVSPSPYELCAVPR

Chain of CYP3A4 (P08684 whole entry): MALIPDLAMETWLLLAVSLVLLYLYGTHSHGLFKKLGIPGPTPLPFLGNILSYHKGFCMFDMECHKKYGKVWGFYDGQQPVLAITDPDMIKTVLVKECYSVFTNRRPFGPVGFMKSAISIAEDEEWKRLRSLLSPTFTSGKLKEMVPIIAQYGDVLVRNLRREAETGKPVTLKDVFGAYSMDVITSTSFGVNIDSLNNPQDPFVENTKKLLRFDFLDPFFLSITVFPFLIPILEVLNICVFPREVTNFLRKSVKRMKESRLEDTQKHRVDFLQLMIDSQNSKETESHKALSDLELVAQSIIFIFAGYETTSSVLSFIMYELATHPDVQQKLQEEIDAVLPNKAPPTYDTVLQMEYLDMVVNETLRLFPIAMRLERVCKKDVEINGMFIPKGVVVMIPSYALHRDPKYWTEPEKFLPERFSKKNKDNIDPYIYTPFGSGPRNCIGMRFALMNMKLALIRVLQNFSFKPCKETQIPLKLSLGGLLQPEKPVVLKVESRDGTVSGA
Chain of human CYP2C19 (P33261 whole entry): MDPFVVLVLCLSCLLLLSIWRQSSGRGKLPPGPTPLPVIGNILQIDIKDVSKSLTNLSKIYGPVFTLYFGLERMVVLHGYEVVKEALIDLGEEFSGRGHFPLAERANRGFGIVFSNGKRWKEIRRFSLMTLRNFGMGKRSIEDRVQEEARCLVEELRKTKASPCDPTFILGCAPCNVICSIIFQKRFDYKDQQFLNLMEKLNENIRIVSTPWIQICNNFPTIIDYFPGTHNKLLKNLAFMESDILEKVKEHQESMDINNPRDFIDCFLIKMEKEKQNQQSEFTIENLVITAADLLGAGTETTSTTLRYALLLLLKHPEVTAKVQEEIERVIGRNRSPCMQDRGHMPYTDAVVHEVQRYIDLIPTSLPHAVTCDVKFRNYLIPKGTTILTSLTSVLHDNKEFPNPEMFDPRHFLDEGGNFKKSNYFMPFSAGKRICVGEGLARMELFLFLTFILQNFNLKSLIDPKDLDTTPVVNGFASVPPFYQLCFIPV
Chain of Photinus pyralis (firefly) luciferase (P08659 whole entry): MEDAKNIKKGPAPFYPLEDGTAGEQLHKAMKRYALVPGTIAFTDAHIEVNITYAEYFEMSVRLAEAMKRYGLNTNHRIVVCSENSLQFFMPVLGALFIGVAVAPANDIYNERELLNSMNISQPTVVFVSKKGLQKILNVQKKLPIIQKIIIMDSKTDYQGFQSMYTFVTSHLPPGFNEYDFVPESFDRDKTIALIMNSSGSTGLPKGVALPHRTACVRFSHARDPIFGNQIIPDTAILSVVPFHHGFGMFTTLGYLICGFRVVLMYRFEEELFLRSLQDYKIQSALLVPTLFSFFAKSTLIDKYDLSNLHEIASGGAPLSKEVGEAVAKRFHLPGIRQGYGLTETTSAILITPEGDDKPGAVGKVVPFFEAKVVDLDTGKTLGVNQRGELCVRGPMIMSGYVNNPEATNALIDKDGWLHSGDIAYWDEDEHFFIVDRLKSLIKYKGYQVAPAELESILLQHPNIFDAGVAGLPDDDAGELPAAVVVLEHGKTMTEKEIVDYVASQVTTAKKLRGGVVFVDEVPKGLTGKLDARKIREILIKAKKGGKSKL

SMILES | Luciferase IC50 (half-maximal inhibitory concentration) [1] | IC50 (human CYP2D6) [µM] | IC50 (human CYP2C19) [µM] | IC50 (human CYP2C9) [µM] | CYP2C19 Efficacy (human CYP2C19) | IC50 (CYP3A4) [µM] | IC50 (human CYP1A2) [µM] | further results
CNC(C)Cc1ccc2c(c1)OCO2.Cl (stereo not shown) | Inactive | 0.4 |  |  |  |  |  | CYP2C19 IC50 (half-maximal inhibitory concentration) (human CYP2C19): Inactive; CYP3A4 IC50 (half-maximal inhibitory concentration) (CYP3A4): Inactive; CYP1A2 IC50 (half-maximal inhibitory concentration) (human CYP1A2): Inactive; CYP2C9 IC50 (half-maximal inhibitory concentration) (human CYP2C9): Inactive
CC(=O)OC1(c2ccccc2)CCN(CCc2ccccc2)CC1 | Inactive | 0.57 | 36.6 | 53.2 |  |  |  | AC50 (human CYP2C19): 36.6 µM; AC50 (CYP3A4): 40.9 µM; CYP3A4 IC50 (half-maximal inhibitory concentration) (CYP3A4): 40.89 ± 0 (145 ± 9) µM; CYP1A2 IC50 (half-maximal inhibitory concentration) (human CYP1A2): Inactive; AC50 (human CYP2C9): 53.2 µM; CYP2D6 Efficacy (human CYP2D6): 0.57 ± 0.14 (-105 ± 2) %
FC(F)(F)c1ccccc1-n1ccnc1 | Inactive | 2.28 |  | 8.39 | 9.3 ± 5.41 (-172 ± 73) % | 0.44 | 4.14 | 
CSc1ccc(C(=O)C(C)(C)N2CCOCC2)cc1 | Inactive | 2.53 |  | 23.2 | 0.94 ± 0.32 (-142 ± 3) % | 3.18 | 40.1 | 
CC(C)(C)c1cc(CCC(=O)NN)cc(C(C)(C)C)c1O | Inactive | 34.3 | 5.4 | 5.92 |  | 0.14 | 6.97 | CYP2C19 Efficacy (in parenthesis) (human CYP2C19): 5.4 ± 1.6 (-136 ± 2) %; CYP3A4 Efficacy (in parenthesis) (CYP3A4): 0.14 ± 0.02 (-94 ± 4) %; CYP1A2 Efficacy (in parenthesis) (human CYP1A2): 6.97 ± 1.74 (-102 ± 5) %; CYP2C9 Efficacy (in parenthesis) (human CYP2C9): 5.92 ± 1.06 (-98 ± 3) %; CYP2D6 Efficacy (in parenthesis) (human CYP2D6): 34.28 ± 2.23 (-95 ± 1) %
C=CCc1cc(S(=O)(=O)c2ccc(O)c(CC=C)c2)ccc1O | Inactive | 6.26 | 3.47 | 0.4 |  | 20 | 73.9 | CYP2C19 Efficacy (in parenthesis) (human CYP2C19): 3.47 ± 1.89 (-136 ± 7) %; CYP3A4 Efficacy (in parenthesis) (CYP3A4): 20.01 ± 7.14 (-71 ± 11) %; CYP1A2 Efficacy (in parenthesis) (human CYP1A2): 73.87 ± 5 (-42 ± 2) %; CYP2C9 Efficacy (in parenthesis) (human CYP2C9): 0.4 ± 0.13 (-67 ± 11) %; CYP2D6 Efficacy (in parenthesis) (human CYP2D6): 6.26 ± 1.74 (-110 ± 9) %
C[N+](C)(CCOc1ccccc1)Cc1cccs1.[I-] | Inactive | 0.15 |  |  |  |  |  | CYP2C19 IC50 (half-maximal inhibitory concentration) (human CYP2C19): Inactive; CYP3A4 IC50 (half-maximal inhibitory concentration) (CYP3A4): Inactive; CYP1A2 IC50 (half-maximal inhibitory concentration) (human CYP1A2): Inactive; CYP2C9 IC50 (half-maximal inhibitory concentration) (human CYP2C9): Inactive
CCCC[P+](CC)(CCCC)CCCC.CCOP(=O)([O-])OCC |  | 0.06 |  |  | 70.71 ± 33.56 (-88 ± 37) % |  |  | CYP3A4 IC50 (CYP3A4): Inactive; Luciferase IC50 [1]: Inactive; CYP1A2 IC50 (human CYP1A2): Inactive; CYP2C9 IC50 (human CYP2C9): Inactive
COC(=O)c1c(C)cc(O)c(C)c1O | Inactive | 33 |  | 50.2 | 6.41 ± 1.34 (-140 ± 12) % | 53.2 | 0.24 | 
CCCCCCCC[N+](C)(CCCCCCCC)CCCCCCCC.O=S(=O)([O-])C(F)(F)F | Inactive | 0.19 | 12.9 | 28.3 |  | 3.7 | 47.6 | 
Cl.Cl.NCCNc1cccc2ccccc12 |  |  |  |  | 24.7 ± 6.17 (-146 ± 5) % | 31.8 |  | Luciferase IC50 [1]: Inactive; CYP1A2 Efficacy (human CYP1A2): 0.57 ± 0.07 (-100 ± 5) %; CYP2C9 Efficacy (human CYP2C9): 17.25 ± 2.37 (-110 ± 3) %; CYP2D6 Efficacy (human CYP2D6): 5.04 ± 0.58 (-104 ± 5) %
CCCCCCCCCCCCCCCCCC[N+](C)(C)Cc1ccccc1.[Cl-] |  |  |  |  | 48.63 ± 14.39 (-147 ± 23) % | 45.9 |  | IC50 ([1]; read-out: Luciferase IC50): 87 µM; CYP1A2 Efficacy (human CYP1A2): 80.42 ± 0 (-111 ± 16) %; CYP2C9 Efficacy (human CYP2C9): 38.84 ± 2.53 (-102 ± 5) %; CYP2D6 Efficacy (human CYP2D6): 0.67 ± 0.43 (-99 ± 3) %
CCCC[N+](C)(CCCC)CCCC.O=S(=O)([N-]S(=O)(=O)C(F)(F)F)C(F)(F)F | Inactive | 0.48 |  | 5.83 |  | 67.4 | 50.6 | CYP2C19 IC50 (half-maximal inhibitory concentration) (human CYP2C19): Inactive
CCCCCCCCCCCCCC[P+](CCCC)(CCCC)CCCC.CCCCCCCCCCCCc1ccc(S(=O)(=O)[O-])cc1 | Inactive | 0.21 | 22 | 15.7 | 21.96 ± 3.74 (-142 ± 38) % |  | 24.3 | CYP2C19 Efficacy (in parenthesis) (human CYP2C19): 21.96 ± 3.74 (-142 ± 38) %; AC50 (CYP3A4): 7.93 µM; CYP3A4 Efficacy (in parenthesis) (CYP3A4): 7.93 ± 2.21 (104 ± 17) %; CYP3A4 IC50 (half-maximal inhibitory concentration) (CYP3A4): 7.93 ± 2.21 (104 ± 17) µM; CYP1A2 AC50 (half-maximal activity concentration) (human CYP1A2): Inconclusive inhibitor; CYP1A2 Efficacy (in parenthesis) (human CYP1A2): 24.26 ± 16.34 (-39 ± 1) %; CYP2C9 Efficacy (human CYP2C9): 15.74 ± 3.82 (-84 ± 8) %; CYP2C9 Efficacy (in parenthesis) (human CYP2C9): 15.74 ± 3.82 (-84 ± 8) %; CYP2D6 Efficacy (human CYP2D6): 0.21 ± 0.10 (-107 ± 3) %; CYP2D6 Efficacy (in parenthesis) (human CYP2D6): 0.21 ± 0.1 (-107 ± 3) %
Cc1cc(CCC(=O)OCCOCCOCCOC(=O)CCc2cc(C)c(O)c(C(C)(C)C)c2)cc(C(C)(C)C)c1O | Inactive | 9.78 | 4.01 | 0.55 |  | 2.56 |  | CYP2C19 Efficacy (in parenthesis) (human CYP2C19): 4.01 ± 1.12 (-130 ± 10) %; CYP3A4 Efficacy (in parenthesis) (CYP3A4): 2.56 ± 0.17 (-86 ± 4) %; CYP1A2 IC50 (half-maximal inhibitory concentration) (human CYP1A2): Inactive; CYP2C9 Efficacy (in parenthesis) (human CYP2C9): 0.55 ± 0.06 (-101 ± 5) %; CYP2D6 Efficacy (in parenthesis) (human CYP2D6): 9.78 ± 0 (-91 ± 3) %
CCCCCCCCCCCCCC[P+](CCCCCC)(CCCCCC)CCCCCC.O=S(=O)([N-]S(=O)(=O)C(F)(F)F)C(F)(F)F | Inactive | 0.25 | 43.7 | 6.41 |  | 3.13 | 37 | 
COC(=O)C1=C(C)NC(C)=C(C(=O)O[C@@H]2CCCN(Cc3ccccc3)C2)[C@@H]1c1cccc([N+](=O)[O-])c1.Cl (racemic) [rac Benidipine hydrochloride] | Inactive | 13.6 | 6.53 | 0.75 |  | 0.84 | 25.2 | 
Cl.OC(CNCC(O)C1CCc2cc(F)ccc2O1)C1CCc2cc(F)ccc2O1 (racemic) [rac Nebivolol hydrochloride] | Inactive | 0.25 | 41.3 |  | 41.28 ± 3.36 (-60 ± 3) % |  |  | AC50 (CYP3A4): 16.1 µM; CYP3A4 IC50 (half-maximal inhibitory concentration) (CYP3A4): 16.12 ± 1.09 (65 ± 10) µM; CYP1A2 IC50 (half-maximal inhibitory concentration) (human CYP1A2): Inactive; CYP2C9 IC50 (half-maximal inhibitory concentration) (human CYP2C9): Inactive; CYP2D6 Efficacy (human CYP2D6): 0.25 ± 0.05 (-104 ± 2) %
